Measurements as given in patent US6121322A, “Azulene derivatives” (Boehringer Mannheim GmbH, priority 1997, dated 2000).
Values after ≈ are worked out from the molar mass of the structure shown. “Also recorded” adds a separate entry of the source.

Experiments:
TNFα synthesis = experiment: TNFα Synthesis Assay (LPS-stimulated human leukocytes, TNFα in supernatant by enzyme immunoassay); assay type: cell-based; settings: Leukocyte, 37° C., 2 hours, read-out: TNFα synthesis inhibition in vitro IC50
Experimental: Experimental Procedure in Vitro
Human leukocytes are obtained from heparinized full blood over a Ficol gradient, washed with RPMI 1640 medium having the prescribed additives and adjusted in the same medium to a cell count of 1×10^6 cells/ml. 20 μl of the substance to be tested in 10-fold concentration, 20 μl of an LPS solution of 4 μg/ml and 160 μl of the adjusted cell suspension are incubated in the individual wells of a 96 well culture plate at 37° C. for 2 hours. The experiments are carried out as double determinations. At the end of the incubation period the plates are carefully shaken and centrifuged. Two samples each of 50 μl are withdrawn from the clear culture supernatant for the analysis of TNFα.
Analysis of TNFα in the Cell Cupernatant by Enzyme Immunoassay
Nunc-Maxisorb plates are coated with a mouse-anti-human-TNFα antibody (1 μg/ml, 50 μl/well, Dianova/Pharmingen 18631D, carbonate buffer pH 9.5) and free binding capacity is saturated with a gelatine- and serum albumin-containing blocking buffer. After washing the plates there are pipetted in double determination in each case 25 μl of the analyte as well as on each plate a series of standard concentrations. For the detection of the analyte, 25 μl of a biotinylated mouse-anti-human-TNFα antibody ([…] 25 μl/well, Dianova/Pharmingen 18642D, blocking buffer) are added and the plates are shaken at room temperature for 2 hours. After washing incubation is carried out with streptavidin-alkaline phosphatase conjugate (50 μl/well) and finally with 4-nitrophenyl phosphate and evaluation is carried out on a photometer. The concentrations of the measured samples are determined using a computer program based on a calibration curve from the co-determined standard concentrations.
Determination of the IC50
The percentage inhibition for the individual sample is calculated by comparing the TNFα concentration obtained for the measured samples with the non-inhibited samples. The IC50 is determined by computer from the concentration relationship of the inhibitor value.

TNFα [1] = settings: cited from earlier work
[2] = in vivo; cited from earlier work
HIV = settings: cited from earlier work
PDE4 = settings: cited from earlier work
TNFα [3] = settings: in vivo; cited from earlier work
[4] = system: animal models for multiple sclerosis; settings: animal experiments; cited from earlier work

Row | Structure (SMILES) | IC50 (TNFα synthesis) [µg/mL] | side effects [2] | other results
1 | CCOC(=O)c1c2ccc(CC(=O)NOCC(=O)N(CCOC)CCOC)ccc-2c(C(=O)OCC)c1N [Example 4, Diethyl 2-amino-6-{[2-oxo-2-(N,N-bis-2-methoxyethyl-amino)-ethoxycarbamoyl]-methyl}-azulene-1,3-dicarboxylate] | 0.03 (≈ 0.0562 µM) |  | 
2 | CCOC(=O)c1c2ccc(CC(=O)NOCCN3CCOCC3)ccc-2c(C(=O)OCC)c1N [Example 20] | 0.05 (≈ 0.106 µM) |  | 
3 | CCOC(=O)c1c2ccc(CC(=O)NOC(=O)N3CCN(C)CC3)ccc-2c(C(=O)OCC)c1N [Example 31, Diethyl 2-amino-6-{[(4-methyl-piperazino)-carbonyloxy-carbamoyl]-methyl}-azulene-1,3-dicarboxylate] | 0.1 (≈ 0.206 µM) |  | 
4 | O=C1CCC(N2C(=O)c3ccccc3C2=O)C(=O)N1 (stereo not shown) [Thalidomide] |  | teratogenic side effects | TNFα blockade (TNFα [1]): weak TNFα blockade; suppression of the proliferation of HIV (HIV): supresses the proliferation of HIV
5 | COc1ccc(C2CNC(=O)C2)cc1OC1CCCC1 (stereo not shown) [rolipram] |  | emetic activity; also recorded: massive side effects | inhibition of PDE4 (PDE4): inhibits PDE4; inhibition of the synthesis of TNFα (TNFα [3]): inhibition of the synthesis of TNFα in vitro and in vivo; activity in animal models for multiple sclerosis [4]: very good activity
